Experimental data published in the NIST ThermoML archive (doi:10.1021/acs.jced.6b00350).
Numbers after ± are expanded uncertainties.

Details: Liquid, Hot wire method

FC(F)CC(F)(F)F [1,1,1,3,3-pentafluoropropane]
thermal conductivity (183.14 K, 5877 kPa): 0.1234 ± 0.0016 W/m/K
thermal conductivity (183.14 K, 70492 kPa): 0.1338 ± 0.0017 W/m/K
thermal conductivity (183.14 K, 70493 kPa): 0.134 ± 0.0017 W/m/K
thermal conductivity (183.15 K, 12341 kPa): 0.1246 ± 0.0016 W/m/K
thermal conductivity (183.15 K, 18865 kPa): 0.1257 ± 0.0016 W/m/K
thermal conductivity (183.15 K, 25402 kPa): 0.1266 ± 0.0016 W/m/K
thermal conductivity (183.16 K, 12323 kPa): 0.1246 ± 0.0016 W/m/K
thermal conductivity (183.16 K, 18832 kPa): 0.1258 ± 0.0016 W/m/K
thermal conductivity (183.16 K, 25441 kPa): 0.1268 ± 0.0016 W/m/K
thermal conductivity (183.16 K, 32517 kPa): 0.1281 ± 0.0016 W/m/K
thermal conductivity (183.17 K, 32553 kPa): 0.1282 ± 0.0016 W/m/K
thermal conductivity (183.18 K, 63248 kPa): 0.1329 ± 0.0017 W/m/K
thermal conductivity (183.19 K, 63254 kPa): 0.133 ± 0.0017 W/m/K
thermal conductivity (183.25 K, 54977 kPa): 0.1312 ± 0.0017 W/m/K
thermal conductivity (183.25 K, 54980 kPa): 0.1317 ± 0.0017 W/m/K
thermal conductivity (183.29 K, 47629 kPa): 0.13 ± 0.0016 W/m/K
thermal conductivity (183.3 K, 47628 kPa): 0.1305 ± 0.0016 W/m/K
thermal conductivity (183.34 K, 39964 kPa): 0.1291 ± 0.0016 W/m/K
thermal conductivity (183.34 K, 39965 kPa): 0.1291 ± 0.0016 W/m/K
thermal conductivity (183.5 K, 279 kPa): 0.1222 ± 0.0015 W/m/K
thermal conductivity (183.5 K, 290 kPa): 0.1225 ± 0.0015 W/m/K
thermal conductivity (183.5 K, 5883 kPa): 0.1234 ± 0.0016 W/m/K
thermal conductivity (183.5 K, 12421 kPa): 0.1245 ± 0.0016 W/m/K
thermal conductivity (183.5 K, 70475 kPa): 0.1338 ± 0.0017 W/m/K
thermal conductivity (183.5 K, 70484 kPa): 0.1336 ± 0.0017 W/m/K
thermal conductivity (183.51 K, 5882 kPa): 0.1233 ± 0.0016 W/m/K
thermal conductivity (183.51 K, 12360 kPa): 0.1246 ± 0.0016 W/m/K
thermal conductivity (183.51 K, 18836 kPa): 0.1258 ± 0.0016 W/m/K
thermal conductivity (183.51 K, 18859 kPa): 0.1258 ± 0.0016 W/m/K
thermal conductivity (183.51 K, 25404 kPa): 0.1269 ± 0.0016 W/m/K
thermal conductivity (183.51 K, 25455 kPa): 0.1269 ± 0.0016 W/m/K
thermal conductivity (183.51 K, 32519 kPa): 0.1282 ± 0.0016 W/m/K
thermal conductivity (183.51 K, 32578 kPa): 0.1281 ± 0.0016 W/m/K
thermal conductivity (183.54 K, 63251 kPa): 0.133 ± 0.0017 W/m/K
thermal conductivity (183.55 K, 63252 kPa): 0.1329 ± 0.0017 W/m/K
thermal conductivity (183.62 K, 54975 kPa): 0.1314 ± 0.0017 W/m/K
thermal conductivity (183.66 K, 47626 kPa): 0.1304 ± 0.0016 W/m/K
thermal conductivity (183.67 K, 47632 kPa): 0.1303 ± 0.0016 W/m/K
thermal conductivity (183.71 K, 39948 kPa): 0.129 ± 0.0016 W/m/K
thermal conductivity (183.71 K, 39959 kPa): 0.1291 ± 0.0016 W/m/K
thermal conductivity (183.88 K, 5875 kPa): 0.1233 ± 0.0016 W/m/K
thermal conductivity (183.88 K, 18828 kPa): 0.1257 ± 0.0016 W/m/K
thermal conductivity (183.88 K, 18858 kPa): 0.1257 ± 0.0016 W/m/K
thermal conductivity (183.88 K, 25416 kPa): 0.1267 ± 0.0016 W/m/K
thermal conductivity (183.88 K, 32497 kPa): 0.1281 ± 0.0016 W/m/K
thermal conductivity (183.88 K, 70464 kPa): 0.1338 ± 0.0017 W/m/K
thermal conductivity (183.89 K, 5878 kPa): 0.1233 ± 0.0016 W/m/K
thermal conductivity (183.89 K, 12374 kPa): 0.1246 ± 0.0016 W/m/K
thermal conductivity (183.89 K, 12395 kPa): 0.1244 ± 0.0016 W/m/K
thermal conductivity (183.89 K, 25431 kPa): 0.1268 ± 0.0016 W/m/K
thermal conductivity (183.89 K, 32541 kPa): 0.1281 ± 0.0016 W/m/K
thermal conductivity (183.89 K, 70475 kPa): 0.1341 ± 0.0017 W/m/K
thermal conductivity (183.9 K, 282 kPa): 0.1223 ± 0.0015 W/m/K
thermal conductivity (183.9 K, 287 kPa): 0.1222 ± 0.0015 W/m/K
thermal conductivity (183.93 K, 63243 kPa): 0.1325 ± 0.0017 W/m/K
thermal conductivity (183.93 K, 63247 kPa): 0.1328 ± 0.0017 W/m/K
thermal conductivity (184.01 K, 54967 kPa): 0.1313 ± 0.0017 W/m/K
thermal conductivity (184.01 K, 54970 kPa): 0.1314 ± 0.0017 W/m/K
thermal conductivity (184.06 K, 47633 kPa): 0.1303 ± 0.0016 W/m/K
thermal conductivity (184.06 K, 47634 kPa): 0.13 ± 0.0016 W/m/K
thermal conductivity (184.1 K, 39951 kPa): 0.129 ± 0.0016 W/m/K
thermal conductivity (184.1 K, 39957 kPa): 0.129 ± 0.0016 W/m/K
thermal conductivity (201.76 K, 4752 kPa): 0.1207 ± 0.0015 W/m/K
thermal conductivity (201.76 K, 4760 kPa): 0.1207 ± 0.0015 W/m/K
thermal conductivity (201.78 K, 10055 kPa): 0.1218 ± 0.0015 W/m/K
thermal conductivity (201.78 K, 10078 kPa): 0.1219 ± 0.0015 W/m/K
thermal conductivity (201.81 K, 15810 kPa): 0.1231 ± 0.0016 W/m/K
thermal conductivity (201.85 K, 253 kPa): 0.1197 ± 0.0015 W/m/K
thermal conductivity (201.86 K, 245 kPa): 0.1197 ± 0.0015 W/m/K
